Laboratory results: ChEMBL document CHEMBL4477199, “Design and synthesis of novel bicalutamide and enzalutamide derivatives as antiproliferative agents for the treatment of prostate cancer” (Eur J Med Chem, 2016)

Assays:
DU-145 [1] = assay: Antiproliferative activity against human DU145 cells after 96 hrs by propidium iodide staining based fluorescence 2D monolayer assay; type: functional, cell-based; conditions: DU-145, 96 h
[2] = Efflux ratio of apparent permeability from basolateral to apical side over apical to basolateral side in human Caco2 cells at 10 uM incubated for 120 mins by LC-MS/MS analysis; conditions: Caco-2
[3] = biological target: T1, Androgen receptor (Rattus norvegicus) (UniProt P15207); assay: (§1) Antagonist activity at rat androgen receptor fused with DNA-binding domain of GAL4 expressed in AR-UAS-bla GripTite 293 cells assessed as inhibition of R1881-induced receptor activation preincubated for 30 mins followed by R1881 addition measured after 16 to 24 hrs by betalactamase reporter gene assay; type: cell-based
T1 sequence (whole entry): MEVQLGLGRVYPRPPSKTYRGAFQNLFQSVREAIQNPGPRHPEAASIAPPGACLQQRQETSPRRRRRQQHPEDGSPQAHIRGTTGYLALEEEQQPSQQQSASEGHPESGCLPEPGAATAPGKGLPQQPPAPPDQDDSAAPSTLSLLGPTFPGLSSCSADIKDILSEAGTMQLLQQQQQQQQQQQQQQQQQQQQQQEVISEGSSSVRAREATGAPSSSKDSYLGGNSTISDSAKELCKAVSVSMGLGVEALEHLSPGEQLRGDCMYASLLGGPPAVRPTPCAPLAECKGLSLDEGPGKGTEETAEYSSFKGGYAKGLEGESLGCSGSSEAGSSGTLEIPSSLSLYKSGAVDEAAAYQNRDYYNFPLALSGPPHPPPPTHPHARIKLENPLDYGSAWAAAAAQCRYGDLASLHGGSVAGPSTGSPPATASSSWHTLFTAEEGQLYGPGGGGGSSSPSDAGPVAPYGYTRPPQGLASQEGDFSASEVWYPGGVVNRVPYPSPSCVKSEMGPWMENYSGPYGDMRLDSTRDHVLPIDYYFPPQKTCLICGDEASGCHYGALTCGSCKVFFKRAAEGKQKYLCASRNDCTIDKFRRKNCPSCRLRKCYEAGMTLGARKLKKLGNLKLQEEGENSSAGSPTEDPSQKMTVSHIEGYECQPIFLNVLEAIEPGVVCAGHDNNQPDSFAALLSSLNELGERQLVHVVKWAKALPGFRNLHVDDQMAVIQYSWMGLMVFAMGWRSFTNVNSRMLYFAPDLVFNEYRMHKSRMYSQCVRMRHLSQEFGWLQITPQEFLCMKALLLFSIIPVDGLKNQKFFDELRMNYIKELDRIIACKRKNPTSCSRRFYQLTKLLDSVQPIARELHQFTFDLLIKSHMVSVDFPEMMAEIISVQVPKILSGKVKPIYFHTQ

Androgen receptor = biological target: T2, Androgen receptor (Rattus norvegicus, UniProt P15207); assay: as §1; type: cell-based
T2 sequence (P15207 whole entry): T1 sequence (whole entry)

[4] = 96 h
Description: Solubility in RPMI1640 culture medium at <30 uM incubated for 4 days by microscopic analysis

[5] = Half life in human liver microsomes at 3 uM preincubated with compound followed by NADPH addition by LC-MS/MS analysis
[6] = Apparent permeability from basolateral to apical side in human Caco2 cells at 10 uM incubated for 120 mins by LC-MS/MS analysis; conditions: Caco-2
[7] = Apparent permeability from apical to basolateral side in human Caco2 cells at 10 uM incubated for 120 mins by LC-MS/MS analysis; conditions: Caco-2
[8] = 33000 µM
Description: Solubility in 100% DMSO at 33 mM at -20 degC

in vitro = conditions: human
CWR22R [9] = assay: Antiproliferative activity against human 22Rv1 cells after 96 hrs by propidium iodide staining based fluorescence 2D monolayer assay; type: functional, cell-based; conditions: 22Rv1, 96 h
HepG2 [10] = assay: Cytotoxicity against human HepG2 cells assessed as reduction in cell viability after 72 hrs by MTT assay; type: functional, cell-based; conditions: HepG2, 72 h; for minimal effective concentration: read-out: MEC
VCaP [11] = assay: Antiproliferative activity against human VCaP cells after 96 hrs by propidium iodide staining based fluorescence 2D monolayer assay; type: functional, cell-based
LNCaP [12] = assay: Antiproliferative activity against human LNCAP cells after 96 hrs by propidium iodide staining based fluorescence 2D monolayer assay; type: functional, cell-based
DU-145 [13] = assay: Potency index, ratio of bicalutamide IC50 to compound IC50 for human DU145 cells; type: functional
CWR22R [14] = assay: Potency index, ratio of bicalutamide IC50 to compound IC50 for human 22Rv1 cells; type: functional
VCaP [15] = assay: Potency index, ratio of bicalutamide IC50 to compound IC50 for human VCaP cells; type: functional
LNCaP [16] = assay: Potency index, ratio of bicalutamide IC50 to compound IC50 for human LNCAP cells; type: functional
HepG2 [17] = assay: Cytotoxicity against human HepG2 cells assessed as reduction in cell viability at 100 uM after 72 hrs by MTT assay relative to control; type: functional
[18] = Metabolic stability in human liver microsomes at 3 uM preincubated with compound followed by NADPH addition measured after 5 to 45 mins by LC-MS/MS analysis; type: ADME, Microsome
LNCaP [19] = assay: Antiproliferative activity against human LNCAP cells assessed as relative inhibition after 96 hrs by propidium iodide staining based fluorescence 2D monolayer assay; type: functional, cell-based
VCaP [20] = assay: Antiproliferative activity against human VCaP cells assessed as relative inhibition after 96 hrs by propidium iodide staining based fluorescence 2D monolayer assay; type: functional, cell-based
CWR22R [21] = assay: Antiproliferative activity against human 22Rv1 cells assessed as relative inhibition after 96 hrs by propidium iodide staining based fluorescence 2D monolayer assay; type: functional, cell-based; conditions: 22Rv1, 96 h
DU-145 [22] = assay: Antiproliferative activity against human DU145 cells assessed as relative inhibition after 96 hrs by propidium iodide staining based fluorescence 2D monolayer assay; type: functional, cell-based; conditions: DU-145, 96 h

SMILES | IC50 (DU-145 [1]) [µM] | efflux ratio at 2 h, 10 µM [2] | inhibition [3] | IC50 (Androgen receptor) [µM] | solubility [4] | half-life at 3 µM ([5]; liver microsomes) [min] | Papp B→A at 2 h, 10 µM [6] [×10⁻⁶ cm/s] | Papp A→B at 2 h, 10 µM [7] [×10⁻⁶ cm/s] | solubility [8] | microsomal CLint at 3 µM (in vitro; liver microsomes) [µL/min/mg] | IC50 (CWR22R [9]) [µM] | AC50 (HepG2 [10]) [µM] | minimal effective concentration (HepG2 [10]) [µM] | IC50 (VCaP [11]) [µM] | IC50 (LNCaP [12]) [µM] | Ratio IC50 (DU-145 [13]) | Ratio IC50 (CWR22R [14]) | Ratio IC50 (VCaP [15]) | Ratio IC50 (LNCaP [16]) | cell viability reduction (HepG2 [17]) [%] | other results
C[C@](O)(CSc1ccc(C(F)(F)F)cc1)C(=O)Nc1ccc(C#N)c(C(F)(F)F)c1 | 17.2 | 0.817 | Dose-dependent effect | 2.17 | Soluble | 5.6 | 4.74 | 5.8 | Soluble | 248 | 9.75 | 61.2 | 49.6 | 9.28 | 14.5 | – | – | – | – | – | –
CC(O)(CSc1cccc(C(F)(F)F)c1)C(=O)Nc1ccc([N+](=O)[O-])c(C(F)(F)F)c1 (stereo not drawn) | 8.73 | 0.853 | Dose-dependent effect | 0.625 | Soluble | 6.87 | 4.27 | 5 | Soluble | 202 | 5.07 | 26.1 | 13.2 | 8.64 | 6.44 | – | – | – | – | – | –
CC(O)(CS(=O)(=O)c1ccc(C(F)(F)F)cc1)C(=O)Nc1ccc(C#N)c(C(F)(F)F)c1 (stereo not drawn) | 32.8 | – | – | – | Soluble | – | – | – | Soluble | – | 21.5 | – | – | 29.1 | 20.1 | 2 | 2 | 2 | 2 | – | –
CC(O)(CSc1ccccc1C(F)(F)F)C(=O)Nc1ccc([N+](=O)[O-])c(C(F)(F)F)c1 (stereo not drawn) | 7.57 | 0.843 | Dose-dependent effect | 0.28 | Soluble | – | 2.9 | 3.44 | Soluble | – | 4.6 | 2.73 | 1.71 | 4.45 | 4.78 | – | – | – | – | 98 | half-life at 3 µM ([5]; microsomes): 3.39 min; microsomal CLint at 3 µM (in vitro; microsomes): 409 µL/min/mg
CC(O)(CS(=O)(=O)c1ccc(C(F)(F)F)cc1)C(=O)Nc1ccc([N+](=O)[O-])c(C(F)(F)F)c1 (stereo not drawn) | 24.7 | – | – | – | Soluble | – | – | – | Soluble | – | 18.7 | – | – | 31.5 | 17.9 | <=2 | <=2 | <=2 | <=2 | – | –
CC(O)(CS(=O)(=O)c1ccccc1C(F)(F)F)C(=O)Nc1ccc([N+](=O)[O-])c(C(F)(F)F)c1 (stereo not drawn) | 37.5 | 1.29 | Dose-dependent effect | 0.811 | Soluble | – | 17.2 | 13.3 | Soluble | – | 18.6 | 32.6 | 22.7 | 27.6 | 25.7 | – | – | – | – | – | Stability [18]: Stable
CC(O)(CS(=O)(=O)c1cccc(C(F)(F)F)c1)C(=O)Nc1ccc([N+](=O)[O-])c(C(F)(F)F)c1 (stereo not drawn) | 31.6 | – | Dose-dependent effect | 1.07 | Soluble | – | – | – | Soluble | – | 16.1 | – | – | 30.8 | 16.2 | <=2 | <=2 | <=2 | <=2 | – | –
C[C@](O)(CS(=O)(=O)c1ccc(F)cc1)C(=O)Nc1ccc(C#N)c(C(F)(F)F)c1 [(R)-BICALUTAMIDE] | 45.4 | – | – | – | – | – | – | – | – | 6.48 | 46.2 to 46.3 | – | – | 51.6 | 45.2 | – | – | – | – | 77 | IC50 (LNCaP [19]): 47 µM; IC70 (LNCaP [19]): 59.3 µM; IC70 (DU-145 [1]): 56.6 µM; IC50 (VCaP [20]): 39.8 µM; IC70 (VCaP [20]): 52.1 µM; IC50 (CWR22R [21]): 44.6 µM; IC70 (CWR22R [21]): 57.1 µM; IC70 (CWR22R [9]): 58.7 µM; IC70 (VCaP [11]): 83.4 µM; IC70 (LNCaP [12]): 57.7 µM; IC50 (DU-145 [22]): 41.2 µM; IC70 (DU-145 [22]): 52.6 µM
CC(O)(COc1ccc(C#N)cc1C(F)(F)F)C(=O)Nc1ccc([N+](=O)[O-])c(C(F)(F)F)c1 (stereo not drawn) | 7.65 | – | Dose-dependent effect | 0.0722 | – | 534 | – | – | – | 2.59 | 5.55 | 20.2 | 10.6 | 8.38 | 5.69 | – | – | – | – | 98 | –
CC(O)(COc1ccc(C(F)(F)F)cc1)C(=O)Nc1ccc(C#N)c(C(F)(F)F)c1 (stereo not drawn) | 16.3 | 0.943 | – | – | Soluble | – | 4.8 | 5.09 | Soluble | – | 6.91 | 23.9 | 11.3 | 9.65 | 6.45 | – | – | – | – | – | Stability [18]: Stable
